Measured values from patent EP3362444B1, “COMPOUNDS” (Exonate Limited, priority 2015, dated 2017).
“Also recorded” adds a separate entry of the source.

Experiments:
[1] = target: T1, SRPK1 (Homo sapiens, UniProt Q96SB4); assay: In vitro kinase assay (Kinase-Glo), SRPK1 inhibition; assay type: biochemical; settings: for IC50: SRPK1 inhibition assay, 1 µM ATP, SRSF1 RS peptide, 30°C 10 minutes
T1 construct: 0.1 µg of purified SRPK1 kinase
Experimental: Candidate compounds were tested for SRPK1 inhibition using a Kinase-Glo assay (Promega, Southampton, UK32). […] Candidate compounds were serially diluted from 10 µM to 0.5 nM and added to the reaction mixture, wells with omitted SRPK1 kinase and omitted compounds were also added as controls. All wells contained 1% DMSO (Fisher Scientific, Loughborough, UK). One micromolar ATP was added, wells minus ATP were used as background controls. The plate was then incubated at 30°C for 10 minutes. An equal volume of Kinase-Glo (25 µL; Promega) was added to each well and the plate read for luminescence using a Fluostar Optima (BMG Labtech) .

[2] = target: T1, SRPK1; assay: Differential scanning fluorimetry (DSF); assay type: binding; settings: higher ΔTm indicates higher affinity
Experimental: Differential Scanning Fluorimetry was performed as described in Federov et al (2011). […]

[3] = test system: retinal pigmented epithelial cells; assay: Isoform specific VEGF ELISA in retinal pigmented epithelial cells; assay type: cell-based; settings: relative to DMSO control; Figure 3
Experimental: 96-well clear microplate (high sensitivity thermo immulon or costar 9018) were coated with 100 µL of 10 µg/ml VEGFxxxb or 0.25 µg/ml anti-hVEGF165a per well. The plate was sealed with parafilm and incubated overnight on the shaker at room temp. Each well was aspirated and washed with Wash Buffer (200 µl PBS-Tween 0.05%), two times for a total of three washes. After the last wash, remaining Wash Buffer was removed by inverting the plate and blotting it against clean paper towels. Plates were blocked by adding 100 µl of Reagent Diluent (1%BSA/PBS) to each well and incubated at room temp on a shaker for 2 hours. The aspiration/wash step was repeated. 100 µL of standards or samples in 1% BSA/PBS were added to each well, covered with parafilm and incubated 2 hours at room temperature. The aspiration/wash was repeated and 100 µL of 100 ng/ml Detection Antibody (BAF293), diluted in Reagent Diluent, was added to each well which were covered with parafilm and incubated 2 hours at room temp. The aspiration/wash was repeated and 100 µL of the working dilution of Streptavidin-HRP (1:200 dilution) was added to each well. […] The optical density of each well was measured immediately, using a microplate reader set to 450 nm.
To determine whether these compounds could switch splicing of VEGF isoforms, VEGF was measured in retinal pigmented epithelial cells by isoform specific ELISA.

[4] = test system: laser-induced CNV; assay: Laser-induced choroidal neovascularisation (CNV) model, topical eye drops; assay type: in vivo, C57/B6 mice; settings: for anti-angiogenic efficacy as an eye drop (CNV lesion size): twice daily eye drops, compared with reference compound, Figures 4-7
Experimental: 6-8 week-old female C57/B6 mice were anesthetized with an intraperitoneal injection of a mixture of 50 mg/kg ketamine and 0.5 mg/kg medetomidine. The pupils were immediately dilated by topical (eyedrop) application with a dilator such as 5% phenylephrine hydrochloride and 1% tropicamide. Four photocoagulation lesions were delivered with a green Merilas 532α laser (450 mW, 130 ms) between the "large" retinal vessels in clear space with no vessels in a peripapillary distribution at a distance of 1-2 disc-diameters in each eye. Only clean laser lesions with a subretinal bubble at the time of treatment were included in the study. Immediately following laser photocoagulation the animals were given topical eye drops of candidate compounds twice daily (10 µl, eyes held for 30 seconds to prevent animal wiping drop away).
After one week, mice were anesthetized with an intraperitoneal injection of a mixture of 50 mg/kg ketamine and 0.5 mg/kg medetomidine. The pupils were immediately dilated by topical (eyedrop) application with a dilator such as 5% phenylephrine hydrochloride and 1% tropicamide. Mice were administered an intraperitoneal injection of sodium fluorescein (10%). Phase contrast and green fluorescent fundus images were taken with an angiography microscope and camera with each lesion in focus. The mice were killed by a schedule 1 method and eyes were either unfixed for retinal dissection and protein extraction, or fixed and enucleated and choroids stained and examined.

[5] = test system: primary RPE cells and ARPE-19 cells; assay: qRT-PCR and conventional PCR of VEGF-A alternative splicing; assay type: cell-based, human; settings: Figures 8 and 9
From the text: Primary human retinal epithelial cells were lysed in Trizol reagent and mRNA was extracted using the method of Chomczynski and Sacchi, or using an RNeasy RNA extraction kit (Qiagen, UK). mRNA was reverse transcribed using Thermoscript reverse transcriptase (Fisher Scientific, UK). The cDNA was amplified using primers designed to amplify the region spanning the proximal and distal splice sites in human VEGF-A165a and VEGF-A165b, to amplify both isoforms and differentiate between them due to the fact that the exon 8b-containing isoform is 66-bp shorter than the exon 8a-containing isoform. The primers used were; 5'-[…]-3' (SEQ ID NO:2) and 5'-[…]-3' (SEQ ID NO:3) with the following conditions; 96°C for 2 min followed by 45 cycles at 96°C-30s, 60°C-30s and 72 °C -30 s. The PCR mix consisted of DNA: 200 ng, MgCl2 0.25 mM, Primer each 1 nM, Taq polymerase 1 unit and dH2O up to 25 µl. Control plasmid concentration: VEGF165a 500 ng and VEGF165b 1 µg. PCR products were run on 3% agarose gels containing 0.5 µg/ml ethidium bromide.
RNA was isolated and reverse transcribed as described above. Quantitative PCR (qPCR) was performed with a LightCycler 480 (Roche) q-PCR machine. The qPCR mix included PCR-grade dH2O 3 µl, PCR Primer (1 µM) 2 µl. […]
VEGF-A alternative splicing was further measured in retinal pigmented epithelial cells by qRT-PCR and conventional PCR.

T1 sequence (Q96SB4 whole entry): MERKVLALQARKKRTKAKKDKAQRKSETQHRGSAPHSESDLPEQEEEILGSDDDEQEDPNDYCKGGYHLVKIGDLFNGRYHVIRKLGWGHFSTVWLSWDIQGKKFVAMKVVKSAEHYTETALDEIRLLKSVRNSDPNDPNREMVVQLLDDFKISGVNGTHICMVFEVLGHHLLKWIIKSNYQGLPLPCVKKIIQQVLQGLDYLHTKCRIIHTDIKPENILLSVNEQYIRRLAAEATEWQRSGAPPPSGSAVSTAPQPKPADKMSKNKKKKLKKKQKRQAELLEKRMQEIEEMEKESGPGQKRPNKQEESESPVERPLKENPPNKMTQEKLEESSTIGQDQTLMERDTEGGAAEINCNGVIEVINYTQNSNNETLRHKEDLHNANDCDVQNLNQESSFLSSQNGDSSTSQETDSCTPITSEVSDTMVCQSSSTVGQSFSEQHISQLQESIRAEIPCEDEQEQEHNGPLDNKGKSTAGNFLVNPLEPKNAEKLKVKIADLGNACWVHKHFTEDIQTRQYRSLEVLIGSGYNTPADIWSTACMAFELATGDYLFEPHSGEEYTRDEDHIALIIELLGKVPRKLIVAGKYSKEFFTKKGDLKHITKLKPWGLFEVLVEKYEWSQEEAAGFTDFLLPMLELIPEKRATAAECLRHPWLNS

Row | Structure (SMILES) | IC50 [1] | DSF (ΔTm/°C) [2] | further results
1 | O=C(Nc1cc(C(F)(F)F)ccc1N1CCN(Cc2cncs2)CC1)c1ccco1 [Compound 13, N-(2-(4-(thiazol-5-ylmethyl)piperazin-1-yl)-5-(trifluoromethyl)-phenyl)furan-2-carboxamide] | 39.5 nM | 12.99 °C | 
2 | O=C(Nc1cc(C(F)(F)F)ccc1N1CCN(Cc2ccco2)CC1)c1ccccn1 [Compound 28, N-(2-(4-(furan-2-ylmethyl)piperazin-1-yl)-5-(trifluoromethyl)phenyl)-picolinamide] |  | 14.44 °C | 
3 | O=C(Nc1cc(C(F)(F)F)ccc1N1CCN(Cc2cocn2)CC1)c1ccc(-c2ccncc2)o1 [Compound 17, N-(2-(4-(oxazol-4-ylmethyl)piperazin-1-yl)-5-(trifluoromethyl)phenyl)-5-(pyridin-4-yl)furan-2-carboxamide] |  |  | VEGF165b and VEGF165 protein [3]: increase in VEGF165b, but not VEGF165 protein; anti-angiogenic efficacy as an eye drop (CNV lesion size) [4]: same anti-angiogenic activity on lesion size and the same efficacy as reference compounds
4 | Cc1ccc(C(=O)Nc2cc(C(F)(F)F)ccc2N2CCN(Cc3ccco3)CC2)o1 [Compound 8, 5-methyl-N-(2-(4-((furan-2-yl)methyl)piperazin-1-yl)-5-(trifluoromethyl)phenyl)furan-2-carboxamide] | 17.6 nM | 15.95 °C | potency against SRPK1 relative to analogous compounds in which R3 is a pyridyl ring ([1]; by kinase assay or differential scanning fluorimetry, Figures 1 and 2): improved potency
5 | O=C(Nc1cc(C(F)(F)F)ccc1N1CCN(Cc2cscn2)CC1)c1ccc(C2CCOCC2)o1 [Compound 19, 5-(tetrahydro-2H-pyran-4-yl)-N-(2-(4-(thiazol-4-ylmethyl)piperazin-1-yl)-5-(trifluoromethyl)phenyl)furan-2-carboxamide] | 1.7 nM | 18.03 °C | 
6 | O=C(Nc1cc(C(F)(F)F)ccc1N1CCN(Cc2cocn2)CC1)c1ccc(-c2ccncc2)o1 [N-(2-(4-(oxazol-4-ylmethyl)piperazin-1-yl)-5-(trifluoromethy] [N-(2-(4-(oxazol-4-ylmethyl)piperazin-1-yl)-5-(trifluoromethyl)phenyl)-5-(pyridin-4-yl)furan-2-carboxamide] |  |  | factor more effective than the known pazopanib-based eye drop treatment for AMD ([4]; eye drop): 10; anti-angiogenic efficacy as an eye drop (CNV lesion size) [4]: same efficacy
7 | O=C(Nc1cc(C(F)(F)F)ccc1N1CCN(Cc2cc[nH]n2)CC1)c1ccc(C2CCOCC2)o1 [Compound 14, N-(2-(4-((1H-pyrazol-3-yl)methyl)piperazin-1-yl)-5-(trifluoromethyl)-phenyl)-5-(tetrahydro-2H-pyran-4-yl)furan-2-carboxamide] | 3.5 nM | 17.36 °C | levels of VEGF165b relative to VEGF165 RNA [5]: decrease VEGF-A165a/VEGF165b mRNA isoform expression; also recorded: decrease in VEGF165
8 | O=C(Nc1cc(C(F)(F)F)ccc1N1CCN(Cc2cscn2)CC1)c1ccco1 [Compound 11, N-(2-(4-(thiazol-4-ylmethyl)piperazin-1-yl)-5-(trifluoromethyl)-phenyl)furan-2-carboxamide] |  | 12.94 °C | 
9 | Cn1ccc(CN2CCN(c3ccc(C(F)(F)F)cc3NC(=O)c3ccco3)CC2)n1 [Compound 10, N-(2-(4-((1-methyl-1H-pyrazol-3-yl)methyl)piperazin-1-yl)-5-(trifluoromethyl)phenyl)furan-2-carboxamide] |  | 10.87 °C | 
10 | O=C(Nc1cc(Cl)ccc1N1CCN(Cc2ccco2)CC1)c1ccccn1 [Compound 29, N-(5-chloro-2-(4-(furan-2-ylmethyl)piperazin-1-yl)phenyl)picolinamide] |  | 11.97 °C | 
11 | Cc1ccc(C(=O)Nc2cc(C(F)(F)F)ccc2N2CCN(Cc3cn(Cc4ccccc4)nn3)CC2)o1 [Compound 7, N-(2-(4-((1-benzyl-1H-1,2,3-triazol-4-yl)methyl)piperazin-1-yl)-5-(trifluoromethyl)phenyl)-5-methylfuran-2-carboxamide] | 337 nM | 8.84 °C | 
12 | O=C(Nc1cc(C(F)(F)F)ccc1N1CCN(Cc2cc[nH]n2)CC1)c1ccco1 [Compound 9, N-(2-(4-((1H-pyrazol-3-yl)methyl)piperazin-1-yl)-5-(trifluoromethyl)-phenyl)furan-2-carboxamide] | 62.4 nM | 11.64 °C | 
